From patent publication US10561657B2, “Pyrrolopyrimidine compound” (CENTAURUS BIOPHARMA CO., LTD., priority 2014, dated 2020) come the findings set out here.

Data set [1] deals with JAK2 kinase (wild type, JAK2^WT) (Homo sapiens (Human), UniProt O60674). As to the kind of experiment: HTRF assay for enzymatic activity (IC50), JAK2 wild type. In kind it is biochemical. The following applies: ATP at Km, 120 min, 23 °C. The protocol:
1. Assay for Enzymatic Activity (IC50) of Compounds
A testing platform for kinase activity of JAK2 (wild type and V617F mutant type) was established based on Homogeneous Time-Resolved Fluorescence (HTRF) assay, and the activities of the compounds were tested using the platform. The compounds were subjected to three-fold gradient dilutions with 100% DMSO with a starting concentration of 1 mM (11 dilutions in total). 4 μL of each dilution was added to 96 μL of reaction buffer (50 mM HEPES, pH 7.4, 10 mM MgCl2, 1 mM EGTA, 0.01% Tween-20, 0.005% BAS, 2 mM DTT) and mixed homogeneously. […] The mixture was mixed homogeneously by centrifugation. […] The plate was incubated in the incubator for 1 hr, and then the fluorescence values were read on Envision (available from PerkinElmer). […] The enzymatic activity was representd by a ratio of the two readout at the two emission wavelengths. The enzymatic activity for each compound was tested at 11 concentrations, and IC50 values of the compounds were obtained by calculating the data using GraFit6.0 software (Erithacus Software). 2. Assay for cell proliferation activity (IC50) of compounds
(In general: In TR-FRET formats the signal depends on donor and acceptor labels being close together.)

The nature of data set [2]: Pharmacokinetic assay in adult beagles (IV 5 mg/kg, PO 10 mg/kg). In kind it is in vivo. The conditions noted are these: for half-life / AUC(0-inf) / Cmax / Tmax: beagle, dog, plasma; for AUC(0-inf): read-out: AUCINF—obs. The text has this: Pharmacokinetic Assay in Adult Beagles
Data set [3] is described as follows: Pharmacokinetic assay in adult female SD rats (30 mg/kg oral). In kind it is in vivo.
Setting [4] is: both sexes, IV 5 mg/kg, average.
[5] abbreviates: both sexes, PO 10 mg/kg, average.

Where two headings read alike, the source gives them in different places.

Sequence of JAK2 kinase (wild type, JAK2^WT) (O60674 whole entry): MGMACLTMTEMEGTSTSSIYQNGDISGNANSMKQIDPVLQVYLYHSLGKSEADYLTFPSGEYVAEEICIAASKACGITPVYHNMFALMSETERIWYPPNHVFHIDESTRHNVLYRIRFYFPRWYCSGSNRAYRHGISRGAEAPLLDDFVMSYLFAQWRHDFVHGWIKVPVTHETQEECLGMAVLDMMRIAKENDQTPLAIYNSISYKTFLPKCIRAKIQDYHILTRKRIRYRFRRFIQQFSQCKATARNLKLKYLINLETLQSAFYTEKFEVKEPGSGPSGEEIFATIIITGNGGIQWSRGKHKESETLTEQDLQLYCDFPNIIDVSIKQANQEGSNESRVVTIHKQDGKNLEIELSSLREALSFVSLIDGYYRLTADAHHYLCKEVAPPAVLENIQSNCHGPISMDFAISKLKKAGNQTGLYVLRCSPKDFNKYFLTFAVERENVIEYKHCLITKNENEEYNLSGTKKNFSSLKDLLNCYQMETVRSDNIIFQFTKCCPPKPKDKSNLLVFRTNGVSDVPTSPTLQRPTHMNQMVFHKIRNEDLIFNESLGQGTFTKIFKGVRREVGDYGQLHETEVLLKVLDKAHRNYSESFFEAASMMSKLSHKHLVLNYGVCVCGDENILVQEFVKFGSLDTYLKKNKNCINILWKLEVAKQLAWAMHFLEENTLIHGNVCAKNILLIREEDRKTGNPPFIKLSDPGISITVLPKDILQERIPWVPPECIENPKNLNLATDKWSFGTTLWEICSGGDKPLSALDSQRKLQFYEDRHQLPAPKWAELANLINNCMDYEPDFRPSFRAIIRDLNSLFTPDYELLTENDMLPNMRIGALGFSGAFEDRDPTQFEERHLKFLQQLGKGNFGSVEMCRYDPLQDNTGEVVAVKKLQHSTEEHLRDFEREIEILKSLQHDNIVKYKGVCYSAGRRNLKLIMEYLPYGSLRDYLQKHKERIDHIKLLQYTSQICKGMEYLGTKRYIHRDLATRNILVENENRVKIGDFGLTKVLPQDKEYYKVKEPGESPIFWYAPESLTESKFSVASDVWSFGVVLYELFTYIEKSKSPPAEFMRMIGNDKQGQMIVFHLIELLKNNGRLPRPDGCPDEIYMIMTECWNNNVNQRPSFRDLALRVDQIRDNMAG

What is called IC50 is the midpoint of a concentration-inhibition curve. The low end stands for greater potency, the high end for weaker potency. The compound `N#CCC(C1CCCC1)n1ncc(-c2ncnc3[nH]ccc23)c1N` (stereo not shown) [Example 3, 3-[5-amino-4-(7H-pyrrolo[2,3-d]pyrimidin-4-yl)-1H-pyrazol-1-yl]-3-cyclopentylpropanenitrile] yielded an IC50 in data set [1] of under 20 nM.

One may read the half-life as the time needed for the level to fall by half in the phase considered. The low end stands for rapid decline, the high end for slow decline. The Cmax is the maximum level reached in the sampled fluid or tissue. As a reminder, the Tmax is the time at which the peak concentration occurs. In data set [2] (IV 5 mg/kg, average), `N#CC[C@H](C1CCCC1)n1cc(-c2ncnc3[nH]ccc23)c(N)n1` [Example 5, (3R)-3-[3-amino-4-(7H-pyrrolo[2,3-d]pyrimidin-4-yl)-1H-pyrazol-1-yl]-3-cyclopentylpropanenitrile] registered a Cl_obs of 8.82 mL/min/kg and a Vss_obs of 1.974 L/kg. Further, in data set [2] (IV 5 mg/kg, female), the Cl_obs was 7.37 mL/min/kg, the Vss_obs was found to be 1.86 L/kg, the half-life was 3.65 h and the AUC(0-inf) amounted to 11500 ng·h/mL. In addition, in data set [2] (IV 5 mg/kg, male), the Cl_obs is 10.3 mL/min/kg, the Vss_obs was 2.089 L/kg, the half-life was 3.64 h and the AUC(0-inf) was 8190 ng·h/mL. The F in data set [2] (PO 10 mg/kg, average) amounted to 114%. In data set [2] (PO 10 mg/kg, female), the F was found to be 119%, the peak level (Cmax) was 3980 ng/mL, the Tmax stood at 1.13 h and the half-life was 3.03 h. In data set [2] (PO 10 mg/kg, female), the AUC(0-inf) is 27400 ng·h/mL. Further, in data set [2] (PO 10 mg/kg, male), the F was 107%, the peak level (Cmax) was 3830 ng/mL, the time of peak concentration (Tmax) was determined as 0.25 h and the half-life is 3.04 h. In addition, in data set [2] (PO 10 mg/kg, male), the AUC(0-inf) came to 17500 ng·h/mL. In data set [2] (setting [4]), the half-life is 3.64 h and the AUC(0-inf) came to 9850 ng·h/mL. For the same compound, in data set [2] (setting [5]), the Cmax turned out to be 3900 ng/mL, the Tmax turned out to be 0.69 h, the half-life is 3.03 h and the AUC(0-inf) stood at 22500 ng·h/mL. The half-inhibitory concentration (IC50) in data set [1] is under 20 nM. Besides, in data set [3], the AUCINFobs was 6316 ng·h/mL, the maximum concentration (Cmax) was determined as 2204 ng/mL, the Tmax is 0.58 h and the t1/2 came to 2.20 h.

The compound `N#CC[C@@H](C1CCCC1)n1cc(-c2ncnc3[nH]ccc23)c(N)n1` [Example 6, (3S)-3-[3-amino-4-(7H-pyrrolo[2,3-d]pyrimidin-4-yl)-1H-pyrazol-1-yl]-3-cyclopentylpropanenitrile] displayed an IC50 in data set [1] of under 20 nM.

With `CC(=O)Nc1nn(C(CC#N)C2CCCC2)cc1-c1ncnc2[nH]ccc12` (stereo not shown) [Example 9, N-[1-(2-cyano-1-cyclopentylethyl)-4-(7H-pyrrolo[2,3-d]pyrimidin-4-yl)-1H-pyrazol-3-yl]acetamide], the IC50 in data set [1] is under 20 nM.

In the case of `N#CCC(C1CCCC1)n1cc(-c2ncnc3[nH]ccc23)c(NCCN2CCOCC2)n1` (stereo not shown) [Example 11, 3-cyclopentyl-3-[3-(2-morpholinylethylamino)-4-(7H-pyrrolo[2,3-d]pyrimidin-4-yl)-1H-pyrazol-1-yl]propionitrile], the IC50 in data set [1] was under 20 nM.

In data set [1], `N#CCC(C1CCCC1)n1cc(-c2ncnc3[nH]ccc23)c(NC(=O)CN2CCOCC2)n1` (stereo not shown) [Example 12, N-[1-(2-cyano-1-cyclopentylethyl)-4-(7H-pyrrolo[2,3-d]pyrimidin-4-yl)-1H-pyrazol-3-yl]-2-morpholinylacetamide] showed an IC50 of under 20 nM.

For the compound `N#CCC(C1CCCC1)n1cc(-c2ncnc3[nH]ccc23)c(NCCC(=O)N2CCOCC2)n1` (stereo not shown) [Example 13, 3-cyclopentyl-3-[3-(3-morpholinyl-3-oxopropylamino)-4-(7H-pyrrolo[2,3-d]pyrimidin-4-yl)-1H-pyrazol-1-yl]propionitrile], the IC50 in data set [1] was under 20 nM.

As for `N#CCC(C1CCCC1)n1cc(-c2ncnc3[nH]ccc23)c(NCC(=O)N2CCOCC2)n1` (stereo not shown) [Example 14, 3-cyclopentyl-3-[3-(2-morpholinyl-2-oxoethylamino)-4-(7H-pyrrolo[2,3-d]pyrimidin-4-yl)-1H-pyrazol-1-yl]propionitrile], the IC50 in data set [1] was under 20 nM.

`CCOC(=O)CCC(=O)Nc1nn(C(CC#N)C2CCCC2)cc1-c1ncnc2[nH]ccc12` (stereo not shown) [Example 15, Ethyl 4-[1-(2-cyano-1-cyclopentylethyl)-4-(7H-pyrrolo[2,3-d]pyrimidin-4-yl)-1H-pyrazol-3-ylamino]-4-oxobutanoate] came in with an IC50 in data set [1] of under 20 nM.

For `N#CCC(C1CCCC1)n1cc(-c2ncnc3[nH]ccc23)c(N2C(=O)CCC2=O)n1` (stereo not shown) [Example 16, 3-cyclopentyl-3-[3-(succinimid-1-yl)-4-(7H-pyrrolo[2,3-d]pyrimidin-4-yl)-1H-pyrazol-1-yl]propionitrile], the IC50 in data set [1] is under 100 nM.

As to `N#CCC(C1CCCC1)n1cc(-c2ncnc3[nH]ccc23)c(NC2CC(C(=O)N3CCOCC3)C2)n1` (stereo not shown) [Example 17, 3-[3-(3-morpholin-4-carbonyl)cyclobutylamino-4-(7H-pyrrolo[2,3-d]pyrimidin-4-yl)-1H-pyrazolyl]-3-cyclopentylpropanenitrile], the IC50 in data set [1] was under 20 nM.

Compound `N#CCC(C1CCCC1)n1cc(-c2ncnc3[nH]cc(Br)c23)c(Br)n1` (stereo not shown) [Example 18, 3-[3-bromo-4-(5-bromo-7H-pyrrolo[2,3-d]pyrimidin-4-yl)-1H-pyrazol-1-yl]-3-cyclopentylpropanenitrile] displayed an IC50 in data set [1] of under 1000 nM.

For `N#CCC(C1CCCC1)n1cc(-c2ncnc3[nH]ccc23)c(Br)n1` (stereo not shown) [Example 19, 3-[3-bromo-4-(7H-pyrrolo[2,3-d]pyrimidin-4-yl)-1H-pyrazol-1-yl]-3-cyclopentylpropanenitrile], in data set [1], the IC50 was under 20 nM.

The compound `N#CCC(C1CCCC1)n1cc(-c2ncnc3[nH]ccc23)c(C(N)=O)n1` (stereo not shown) [Example 24, 1-(2-cyano-1-cyclopentylethyl)-4-(7H-pyrrolo[2,3-d]pyrimidin-4-yl)-1H-pyrazol-3-formamide] yielded an IC50 in data set [1] of under 20 nM.

Regarding `CNC(=O)c1nn(C(CC#N)C2CCCC2)cc1-c1ncnc2[nH]ccc12` (stereo not shown) [Example 25, 1-(2-cyano-1-cyclopentylethyl)-N-methyl-4-(7H-pyrrolo[2,3-d]pyrimidin-4-yl)-1H-pyrazol-3-formamide], in data set [1], the IC50 is under 20 nM.

With `N#CCC(C1CCCC1)n1cc(-c2ncnc3[nH]ccc23)c(C(=O)NCCN)n1` (stereo not shown) [Example 26, N-(2-aminoethyl)-1-(2-cyano-1-cyclopentylethyl)-4-(7H-pyrrolo[2,3-d]pyrimidin-4-yl)-1H-pyrazol-3-formamide], in data set [1], the IC50 is under 20 nM.

In turn, `N#CCC(C1CCCC1)n1cc(-c2ncnc3[nH]ccc23)c(C#N)n1` (stereo not shown) [Example 27, 1-(2-cyano-1-cyclopentylethyl)-4-(7H-pyrrolo[2,3-d]pyrimidin-4-yl)-1H-pyrazol-3-carbonitrile] gave a half-inhibitory concentration (IC50) in data set [1] of under 20 nM.

In the case of `N#CCC(C1CCCC1)n1cc(-c2ncnc3[nH]ccc23)c(CO)n1` (stereo not shown) [Example 28, 3-cyclopentyl-3-[3-(hydroxymethyl)-4-(7H-pyrrolo[2,3-d]pyrimidin-4-yl)-1H-pyrazol-1-yl]propionitrile], the IC50 in data set [1] was under 20 nM.
